The record followed here is patent publication US6642365B1, “Anti-(retro)viral conjugates of saccharides and acetamidino or guanidino compounds” (Yeda Research and Development Co. Ltd., priority 2001, dated 2003).

Where two headings read alike, the source gives them in different places.

For experiment [1], the target named is Tat-TAR interaction. Put plainly: Gel-shift inhibition of Tat R52 peptide binding to TAR RNA. Details: species or system HIV-1. To be noted: TAR RNA 6 nM; 60 nM Tat R52; read-out: CI50 (the source's name). How it is done:
The model Tat peptide (R52: […]) was prepared by the Weizmann Institute Chemical Services and was purified by reverse phase HPLC (C-18) (Lapidot et al., 1995). A 31-nt TAR RNA fragment (5′-GGCCAGAUCUGAGCCUGGGAGCUCUCUGGCC-3′) containing the sequence 18-44 of the HIV LTR (Aboul-Ela et al., 1995) was transcribed in vitro by T7 RNA polymerase (Promega) from a synthetic single strand DNA template containing the 17 base double-stranded T7 promoter (both DNA oligonucleotides were prepared by the Weizmann Institute Chemical Services). The RNA was transcriptionally labeled with α-^32P UTP, purified on a 12% polyacrylamide/7M urea gel (19:1 acrylamide:bis-acrylamide) and was eluted from the gel by 0.5M ammonium acetate, 10 mM magnesium acetate, 1 mM EDTA and 0.1% SDS. The sample was subjected to phenol extraction and the RNA was precipitated from 70% ethanol. Purified RNA was dissolved in diethyl pyrocarbonate-treated water (DEPC water), its concentration was determined by UV absorption at 260 nm and the specific radioactivity was determined by scintillation counting on a LS 1701 “Bruker” counter.
To study the affinity of the test compounds to TAR, gel-shift and gel-shift inhibition experiments were performed. The binding reaction mixtures (20 μl) contained ^32P-labeled TAR (18-44) RNA oligonucleotide (3-6 nM) and Tat R52 peptide (35-75 nM) in a binding buffer (10 mM Tris-HCl pH 7.5, 70 mM NaCl, 0.2 mM EDTA and 5% glycerol). The reaction mixtures were incubated for 10 minutes on ice and resolved by electrophoresis on a 10% non-denaturing polyacrylamide gel (40:1 acrylamide:bis-acrylamide) at 200V, for 3 h at 4° C. Gels were dried and visualized by autoradiography. Quantitations were obtained by optical densitometry of films. Alternatively, results were visualized by exposing the wet gels to Fuji phosphoimager plates, which were read on a “Storm 820” (Molecular Dynamics) phosphoimager. Different concentrations of TAR RNA (6,12 and 20 nM) were titrated with various concentrations of Tat R52 in the binding reactions.
Binding inhibition by the monosaccharide derivatives was measured by adding several concentrations of each compound to reaction mixtures containing 60 nM Tat 52 and 6 nM ^32P TAR, attaining 100% binding of Tat TAR in the absence of inhibitors (Lapidot et al., 1995).

The target of experiment [2] is Tat-TAR interaction. The description is as above. Details: species or system HIV-1. To be noted: TAR RNA 2 nM; read-out: CI50 (the source's name).
Experiment [3] has as its system TAR RNA. Briefly: L-arginine-Amberlite affinity column elution of TAR RNA. Format: binding, HIV-1. To be noted: concentration that elutes 50% of TAR RNA from L-arginine-Amberlite affinity column. The method, then: (§1) The model Tat peptide (R52: […]) was prepared by the Weizmann Institute Chemical Services and was purified by reverse phase HPLC (C-18) (Lapidot et al., 1995). […] The RNA was transcriptionally labeled with α-^32P UTP, purified on a 12% polyacrylamide/7M urea gel (19:1 acrylamide:bis-acrylamide) and was eluted from the gel by 0.5M ammonium acetate, 10 mM magnesium acetate, 1 mM EDTA and 0.1% SDS. The sample was subjected to phenol extraction and the RNA was precipitated from 70% ethanol. Purified RNA was dissolved in diethyl pyrocarbonate-treated water (DEPC water), its concentration was determined by UV absorption at 260 nm and the specific radioactivity was determined by scintillation counting on a LS 1701 “Bruker” counter.
The L-arginine-Amberlite resin was prepared as follows: Carboxyl groups of Amberlite IRC-50 resin were covalently modified with ethanolamine using 1-(3-dimethylaminopropyl) 3-ethylcarbodiimide, a water-soluble coupler. The hydroxy ethyleneamide resin obtained was washed and dried, and L-arginine (12-16 μmols per ml of resin) was coupled to the hydroxy groups of the resin via an isourea moiety using a standard cyanogen bromide protocol. The final concentration of arginine residues was 12-16 μmol per ml of resin. The swollen L-arginino-Amberlite resin (200 μl) was packed into a plastic mini-column and equilibrated with buffer containing 40 mM Tris HCl, pH 7.5, 250 mM NaCl, 0.5 mM EDTA and 5 mM MgCl2 (buffer A). Approximately 1 ng of ^32P-UTP labeled TAR RNA in buffer A was loaded on the column. The column was eluted 3 to 5 times with 400 μl portions of buffer A, until no radioactivity was detected in the eluent. […] Each of the test compounds was dissolved in buffer A and passed through the column in 300 μl portions. Radioactivity of the eluates was determined by scintillation counting on a LS 1701 “Bruker” counter. CE50 values, the concentrations of inhibitors eluting 50% of the radioactive material from the column, were determined.

The test system of experiment [4] is TAR RNA. Briefly: Gel-shift binding to TAR RNA. Details: species or system HIV-1. To be noted: 50% binding; TAR RNA 2 nM.
For experiment [5], the system named is TAR RNA. Briefly: RNase A footprinting of TAR RNA. To be noted: 1 μM TAR, 200 pM RNase A. The class given is binding, HIV-1. How it is done:
In a typical experiment 10 μl of 5 mM cacodylate buffer pH 6.5, containing 25 mM KCl and 50-100 ng 5′ ^32P-labeled TAR RNA (approximately 0.5-1 μM) were incubated with 200 pM RNase A (Sigma) at room temperature for 10 minutes in the presence of Tat R52 and the conjugates of the invention at various concentrations. In the competition experiments, the mixture was supplemented with 0.5 μg yeast tRNA (Sigma). After the incubation, 10 μl of formamide/bromphenol blue loading buffer was added to the samples. The samples were heated to 80° C. for 2 min and were resolved by electrophoresis on 40 cm×0.8 mm 20% polyacrylamide denaturing gel (7M urea) for 3 hours at 55° C. The results were visualized by a phosphoimager as described above and quantitated using ImageQuant software.
TAR RNA and RNase A concentrations were established by co-titration. To produce a “single-hit” kinetics conditions, 1 μM TAR versus 200 pM RNase A were selected. Tat R52 and AAC concentrations were determined by titration. […] RNase A cleaved TAR RNA in an uneven manner (FIG. 4A., lane 2). The most susceptible regions for cleavage were the single-stranded loop, nucleotides U31-G34 as well as C24 and U25 of the bulge. Strong cleavage was also observed at G21-G41 and A20-U42 pairs (lower stem). Binding of R52 (2-4 μM) caused a weakening of the bands in the upper stem region, (G26-C39, A27-C38, as well as U40) (FIG. 4A., lanes 3, 4). At 4 μM R52, the cleavage at G34 (loop) was enhanced, as well as a certain enhancement of bands A20, G21, U23 and U25 was observed. Remarkably, the band corresponding to the R52-TAR complex still was observed on the gels even after electrophoresis under strongly denaturing conditions. In the presence of R4K (10-20 μM), the upper stem (G26-C29), the lower stem and the bulge (G21-U23, partially C24 and U25) were protected as well as C38, C39 and U40. Cleavage at C19 and A20 of the lower stem and C30, G33 and G34 of the loop was enhanced by 10 μM R4K, whereas with 20 μM R4K the protection of C30, G34 and A20-G21 was observed (FIG. 4A., lanes 5, 6). […] Cleavages at C19-A20 in the lower stem as well as at G30 and G34 in the loop were observed (FIG. 4A., lanes 7, 8). In the presence of GB4K (20 μM) no significant protection was observed.

Experiment [6] has as its system TAR RNA. Put plainly: Gel-shift binding to TAR RNA. To be noted: for CD50: 50% binding; for effect of ten-fold excess of yeast tRNA on complex formation with TAR: ten-fold excess of tRNA (100 ng per lane). Details: species or system HIV-1. The method, then: as §1
To study the affinity of the test compounds to TAR, gel-shift and gel-shift inhibition experiments were performed. The binding reaction mixtures (20 μl) contained ^32P-labeled TAR (18-44) RNA oligonucleotide (3-6 nM) and Tat R52 peptide (35-75 nM) in a binding buffer (10 mM Tris-HCl pH 7.5, 70 mM NaCl, 0.2 mM EDTA and 5% glycerol). The reaction mixtures were incubated for 10 minutes on ice and resolved by electrophoresis on a 10% non-denaturing polyacrylamide gel (40:1 acrylamide:bis-acrylamide) at 200V, for 3 h at 4° C. Gels were dried and visualized by autoradiography. Quantitations were obtained by optical densitometry of films. Alternatively, results were visualized by exposing the wet gels to Fuji phosphoimager plates, which were read on a “Storm 820” (Molecular Dynamics) phosphoimager. […]
Binding of aminoglycoside-arginine conjugates (AAC) to TAR RNA was measured by adding varying concentrations of each conjugate to reaction mixtures (20 μl) which contained 12 nM ^32P-labeled TAR RNA. The reactions were analyzed as described above.

Regarding `Cl.N=C(N)NCCC[C@H](N)C(=O)O` [Arginine HCl, reference compound], the IC50 on Tat-TAR interaction [1] stood at 38 mM; on Tat-TAR interaction [2], 4 mM. Moreover, in the experiment on TAR RNA [3], the CE50 was 1500 mM.
Consider “YKKKRKKKKKA [Tat R52 peptide, Tat-derived model undeca peptide, containing a single arginine moiety at position 52 of native Tat protein, in the strand of lysines, reference compound]”, for which the CD50 is 6 to 12 nM in the experiment with TAR RNA [4], 35 nM with TAR RNA [6] (TAR RNA 6 nM), 75 nM in the experiment with TAR RNA [6] (TAR RNA 12 nM) and 200 nM in the experiment with TAR RNA [6] (TAR RNA 20 nM). Besides, the “concentration giving effective protection of TAR” value in the experiment on TAR RNA [5] came to 2 µM. Further, the “effect of ten-fold excess of yeast tRNA on complex formation with TAR” value is listed as “do not inhibit the binding” in the experiment on TAR RNA [6] and “did not inhibit complex formation” with TAR RNA [6] (listed as R52). Besides, in the experiment with TAR RNA [3], the CE50 worked out at 0.5 mM.
